# PMC12691779, “Creatine and Taurine as Novel Competitive Inhibitors of Acetylcholinesterase: A Biochemical Basis for Nutritional Modulation of Brain Function” (International Journal of Molecular Sciences, 2025)
# Where two headings read alike, the source gives them in different places.
# B1: Human acetylcholinesterase (AChE; EC 3.1.1.7) (Homo sapiens) (protein)
# chain: EGREDAELLVTVRGGRLRGIRLKTPGGPVSAFLGIPFAEPPMGPRRFLPPEPKQPWSGVVDATTFQSVCYQYVDTLYPGFEGTEMWNPNRELSEDCLYLNVWTPYPRPTSPTPVLVWIYGGGFYSGASSLDVYDGRFLVQAERTVLVSMNYRVGAFGFLALPGSREAPGNVGLLDQRLALQWVQENVAAFGGDPTSVTLFGESAGAASVGMHLLSPPSRGLFHRAVLQSGAPNGPWATVGMGEARRRATQLAHLVGCPPGGTGGNDTELVACLRTRPAQVLVNHEWHVLPQESVFRFSFVPVVDGDFLSDTPEALINAGDFHGLQVLVGVVKDEGSYFLVYGAPGFSKDNESLISRAEFLAGVRVGVPQVSDLAAEAVVLHYTDWLHPEDPARLREALSDVVGDHNVVCPVAQLAGRLAAQGARVYAYVFEHRASTLSWPLWMGVPHGYEIEFIFGIPLDPSRNYTAEEKIFAQRLMRYWANFARTGDPNEPRDPKAPQWPPYTAGAQQYVSLDLRPLEVRRGLRAQACAFWNRFLPKLLSATDTLDEAERQWKAEFHRWSSYMVHWKNQFDHYSKQDRCSDL
# Experiments:
# [1] = biological target: Human acetylcholinesterase (AChE; EC 3.1.1.7) (Homo sapiens, UniProt P22303); test: modified Ellman assay with purified AChE, Lineweaver-Burk kinetics; type: biochemical
# [2] = substrate: CC(=O)SCC[N+](C)(C)C; test: Km from modified Ellman assay, Lineweaver-Burk (enzyme only); type: biochemical, Homo sapiens; conditions: active site (substrate)
# Source text: Km from modified Ellman assay, Lineweaver-Burk (enzyme only) on Human acetylcholinesterase (AChE; EC 3.1.1.7) | The reaction system contained acetylthiocholine (ACth) as the substrate
molecule,measurement,setting,value
"CN(CC(=O)O)C(=N)N [CR, Creatine]",Ki,[1]; read-out: Creatine 0.15 mM,199 ± 5.21 µM
"NCCS(=O)(=O)O [TA, Taurine]",Ki,[1]; read-out: Taurine 0.15 mM,274 ± 5.94 µM
B1,Km,[2],1.73 ± 0.0147 µM
same,Vmax,[2],131 µM/min
